Earlier results, collected in patent US20220296511A1, “COMPOSITIONS FOR DELIVERY OF DRUG COMBINATIONS TO TREAT LUNG DISEASE” (BOARD OF REGENTS, THE UNIVERSITY OF TEXAS SYSTEM, priority 2021, published 2022).
Like-named read-outs stand apart in the source and are kept apart here. One block for each compound: values may come before it.

How the values were obtained:
[1] = 150 mg oral dose
[2] = phase 3 trial
[3] = rats, 50 mg/mL MFF suspension for nebulization
[4] = not given; remark: listed apart in the source
[5] = not given; remark: listed apart in the source

half-life [1]: 9.49 h
plasma concentration [1]: 0.12 ng/mL/mg
SMILES: COC(=O)c1ccc2c(c1)NC(=O)/C2=C(\Nc1ccc(N(C)C(=O)CN2CCN(C)CC2)cc1)c1ccccc1 [nintedanib]
diarrhea reported ([2]; most common adverse reaction): 66.9%
reduction of FVC ([2]; nintedanib group): −80.0 mL per year

therapeutic range (in vivo): 1.0 to 3.5 µg/mL
maximum plasma concentration decreased by food (oral): 40%
lung concentration of mycophenolic acid as % of serum concentration [3]: ~30%
SMILES: COc1c(C)c2c(c(O)c1C/C=C(\C)CCC(=O)O)C(=O)OC2 [mycophenolic acid]

aerosol epithelial lining fluid (ELF) concentration relative to 801 mg oral ([4]; 100 mg aerosol pirfenidone): 35 times
systemic exposure less than the oral delivery ([4]; 100 mg inhalation dose): 15 fold
plasma concentration ([5]; 801 mg oral dose): 5000 ng/mL
lung concentration ([5]; 801 mg oral dose, worked out from plasma concentration): 0.7 µg/g
lung tissue concentration as percentage of plasma concentration ([5]; IV dose 40 mg/kg): nine
pirfenidone decreased by food ([5]; oral): 50%
SMILES: Cc1ccc(=O)n(-c2ccccc2)c1 [pirfenidone]
